Consider two compounds from patent publication US9283277B2, “Methods and compositions for the treatment of obesity” (Children's Medical Center Corporation, priority 2008, dated 2016).

Experiment [1] concerns HFD-fed obese C57BL/6 wt mice. In words: TUDCA and leptin in HFD-induced obesity model. Format: in vivo. On the procedure: (a) Hypothalamic PERK phosphorylation (Thr980) after 21 days of vehicle or TUDCA (150 mg/kg/day) treatment. Following a five-day pretreatment with TUDCA (150 mg/kg/day) or vehicle, nine-ten week old ob/ob mice were treated either with leptin (1 mg/kg/day) or vehicle. (b) Body weight (g), (c) % decrease in body weight, (d) daily food intake of the ob/ob mice during 18 days of treatment period with the indicated regimens. (e) Blood glucose (mg/dl) levels at the 18th day of treatment. Metabolic cage studies were performed; (f) CO2 production (ml/kg/hr), (g) O2 consumption (ml/kg/hr), (h) Respiratory exchange ratio (VCO2/VO2), (i) X-axis ambulatory activity, (j) Heat generation (kcal/hr). Dexa scan analysis of (k) total fat amount (g), (l) fat % and (m) lean body mass (g). C57BL/6 male wt mice were kept on HFD feeding for 32 weeks and following a five day acclimation period were pretreated with TUDCA (150 mg/kg/day) for five days. At the end of pretreatment period intraperitoneal vehicle and leptin (1 mg/kg/day) treatments were started. (n) Body weight (g), (o) % decrease in bodyweight of the HFD-fed mice during the 16-day treatment. (n=6 for VEH, n=7 for Lep, n=7 for TUD, n=8 for TUD+Lep group). Error bars are ±S.E.M., P values are determined by Student's t-test. (*p<0.05, **p<0.01, ***p<0.001)
We next tested the efficacy of TUDCA as a leptin sensitizer in the HFD-induced obesity model. In this experiment we used 35 weeks old and C57BL/6 wt mice, which were kept on HFD-feeding for 32 weeks. We divided the mice into two groups for TUDCA and TUDCA-leptin co-treatment. Body weight of the mice in this cohort was between 35-52 g. We specifically chose the mice with the highest bodyweight for TUDCA and leptin co-treatment group to investigate whether leptin will become effective in these severely obese mice when administered along with the TUDCA. The initial body weight of the TUDCA group was 38.33±1.16 (g) and TUDCA+leptin group was 48.46±1.82 (g) (FIG. 5n). Following an initial five days acclimation period mice were treated with TUDCA (150 mg/kg/day) for […], and subsequently either vehicle or […] treatment was started. […] Following the acclimation, TUDCA pretreatment was started and following the five-day pretreatment, vehicle and leptin (1 mg/kg/day) administration were initiated. TUDCA alone led to a significant decrease in bodyweight by reducing the initial weight from 36.16±0.99 (g) to 32.61±0.65 during the 16 days of treatment period (FIG. 5n). This reduction corresponds to an 8.60% decrease in bodyweight (FIG. 5o). […] Indeed, in our experience TUDCA acts as a much more powerful chemical chaperone when compared to PBA, as doses of TUDCA necessary for reducing ER stress in cellular systems^25 or as a leptin-sensitizing agent is much lower than PBA. […]

The subject of experiment [2] is hypothalamus of lean mice. Put plainly: Tunicamycin infusion to the third ventricle of lean mice. Format: in vivo. The conditions noted are these: leptin 1 mg/kg IP 5½ hours after third ventricle tunicamycin or vehicle infusion, 30 minutes after leptin. The source says:
Having shown that ER stress is increased in the hypothalamus of HFD-fed mice and causes leptin resistance in the cellular systems, we sought to investigate whether leptin action could also be blocked by directly inducing ER stress in brains of lean mice.
Next, we investigated the expression patterns of leptin resistance markers such as neuropeptide Y (NPY) and agouti related peptide (AgRP) in the vehicle- and tunicamycin-infused mice. […] In addition, to exclude the possibility that tunicamycin infusion leads to a decay in mRNA degradation of NPY and AgRP due to a possible toxic effect, we analyzed mRNA levels of IR and insulin receptor substrate 1 (IRS1).
To assess whether increased ER stress and activation of UPR signaling would create leptin resistance and block the leptin-stimulated Stat3 activation in the hypothalamus, leptin (1 mg/kg/day) was intraperitoneally administered 5½ hours after tunicamycin infusion. The experiment was ended by dissection of the hypothalami 30 minutes after leptin administration. […] In contrast, administration of tunicamycin to the third ventricle and creation of ER stress, in complete accordance with our data obtained from 293 cells, blocked activation of Stat3 in the hypothalamus (data not shown).

[3] abbreviates: mice on HFD 32 weeks, TUDCA 150 mg/kg/day with vehicle or leptin 1 mg/kg/day, 16 days.

For the compound `C[C@H](CCC(=O)NCCS(=O)(=O)O)[C@H]1CC[C@H]2[C@@H]3[C@@H](O)C[C@@H]4C[C@H](O)CC[C@]4(C)[C@H]3CC[C@]12C` [TUDCA, tauroursodeoxycholic acid], the “initial body weight of the group (before acclimation)” value in experiment [1] (C57BL/6 wt mice on HFD 32 weeks) was 38.33 ± 1.16 g. Also, in experiment [1] (setting [3]), the “body weight after treatment” value stood at 32.61 ± 0.65 g and the decrease in bodyweight stood at 8.60%. The “initial weight at start of treatment period” value in experiment [1] (mice on HFD 32 weeks, after acclimation) amounted to 36.16 ± 0.99 g.

For “leptin: adipocyte-derived hormone that suppresses appetite”, the “Stat3 phosphorylation (activation) in the hypothalamus” value in experiment [2] is on record as “marked increase”.
